Reference: ChEMBL document CHEMBL1201862, “PubChem BioAssay data set” (2004)
Structures can show the parent of a compound that is named as a salt. The source made the active and inactive calls.

Legend:
[1] = biological target: Dual specificity tyrosine-phosphorylation-regulated kinase 1A (Rattus norvegicus, UniProt Q63470); format: biochemical, Homo sapiens
[2] = biological target: T1, Heat shock factor protein 1 (Mus musculus, UniProt P38532); assay: enhancement of HSF1-driven luciferase signal – cell-based, NIH3T3, luminescence, dose retest, confirmation (AID 435004); format: functional;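 note: stress induced by proteasome inhibitor MG132 added 30 min after compound; luciferase reporter driven by HSF1 response element in NIH3T3 cells; actives raise luminescence as potentiators of the MG132 stress response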
T1 sequence (P38532 whole entry): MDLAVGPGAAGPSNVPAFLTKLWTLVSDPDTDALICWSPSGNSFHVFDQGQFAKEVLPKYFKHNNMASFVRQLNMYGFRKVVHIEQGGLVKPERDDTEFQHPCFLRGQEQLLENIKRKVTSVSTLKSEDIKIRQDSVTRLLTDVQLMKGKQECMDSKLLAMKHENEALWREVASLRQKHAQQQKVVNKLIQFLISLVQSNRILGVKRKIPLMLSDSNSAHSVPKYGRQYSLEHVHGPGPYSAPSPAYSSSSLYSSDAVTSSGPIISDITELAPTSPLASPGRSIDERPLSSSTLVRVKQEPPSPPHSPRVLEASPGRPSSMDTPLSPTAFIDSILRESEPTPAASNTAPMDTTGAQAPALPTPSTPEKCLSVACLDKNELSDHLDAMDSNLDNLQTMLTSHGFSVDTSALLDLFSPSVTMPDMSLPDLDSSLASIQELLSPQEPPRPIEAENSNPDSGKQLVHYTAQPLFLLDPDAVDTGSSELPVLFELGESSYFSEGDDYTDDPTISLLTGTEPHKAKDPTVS

[3] = A cytotoxicity screen of small molecule inhibitors of the PhoP region in Salmonella typhi identified in the primary screen. [Related pubchem assays: 1850, 1864, 1985 ]; format: functional
[4] = biological target: T1, Heat shock factor protein 1; assay: decrease of HSF1-responsive luciferase luminescence – cell-based, NIH3T3, dose retest, confirmation (AID 2382); format: functional;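 note: NIH3T3 fibroblasts with HSF1-driven luciferase reporter stressed by proteasome inhibitor MG132; luminescence from HSF1-driven luciferase expression after 8 hours of MG132 stress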
[5] = HEK-293T viability loss after treatment – luminescence, T-cell screen hits, cytotoxicity control for TCR NF-kB inhibitor project, dose response (AID 489026); format: functional, cell-based;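 note: cells exposed to compound about 14 hours before the viability readout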
BJ [6] = assay: cells; format: functional, cell-based; details: Homo sapiens
BJ [7] = assay: BJ-TERT-LT-ST fibroblast viability loss – cell-based, RAS-independent, luminescence, dose response (AID 1935); format: functional; details: Homo sapiens;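 note: BJ fibroblasts immortalized with TERT plus LT and ST oncogenes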
[8] = DRD fibroblast viability loss – cell-based, non-viral oncogenic, luminescence, dose response (AID 1934); format: functional; details: Homo sapiens
BJ [9] = assay: BJ-TERT fibroblast viability loss – cell-based, RAS-independent, luminescence, dose response (AID 1933); format: functional; details: Homo sapiens
Streptococcus = assay: GAS UMAA2166 growth inhibition – luminescence, BacTiterGlo, counter-screen for streptokinase expression inhibitor project, dose response (AID 1915); format: functional, organism-based;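 note: potency for reduction of bacterial viability or growth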
[10] = tested on: Streptococcus sp. 'group A'; assay: Streptococcus pyogenes SK(-)GAS viability under kanamycin – luminescence, BacTiterGlo, confirmation, counter-screen for streptokinase expression inhibitor project, dose response (AID 1900); format: functional, organism-based
Streptokinase A = biological target: T2, Streptokinase A (Streptococcus pyogenes serotype M1, UniProt P10520); assay: viability-normalized secreted streptokinase activity reduction – plasminogen activation absorbance, OD405, dose response (AID 1914); format: functional, Streptococcus pyogenes M1 GAS;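 note: secreted streptokinase activity via plasminogen activation per viability signal from cell pellet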
T2 sequence (P10520 whole entry): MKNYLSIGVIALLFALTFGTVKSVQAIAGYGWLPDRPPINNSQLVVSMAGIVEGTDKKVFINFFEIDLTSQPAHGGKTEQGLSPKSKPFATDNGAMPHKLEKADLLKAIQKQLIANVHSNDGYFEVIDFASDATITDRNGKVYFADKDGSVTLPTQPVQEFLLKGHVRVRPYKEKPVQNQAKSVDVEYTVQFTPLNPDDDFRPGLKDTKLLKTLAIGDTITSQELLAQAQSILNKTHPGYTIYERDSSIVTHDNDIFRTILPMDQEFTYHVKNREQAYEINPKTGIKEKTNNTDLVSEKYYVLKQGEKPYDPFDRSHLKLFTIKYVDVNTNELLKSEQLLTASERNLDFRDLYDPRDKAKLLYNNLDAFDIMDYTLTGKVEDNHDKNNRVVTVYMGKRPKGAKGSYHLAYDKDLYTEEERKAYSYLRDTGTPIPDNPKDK

Vero = assay: cells; format: functional; details: Chlorocebus sabaeus
[11] = biological target: T3, Rac GTPase-activating protein 1 (Homo sapiens, UniProt Q9H0H5); assay: blockers of MgcRacGAP-driven Rac1 GTP hydrolysis – biochemical, ADP Hunter fluorescence, primary and confirmatory, confirmation (AID 624330); format: functional
T3 sequence (Q9H0H5 whole entry): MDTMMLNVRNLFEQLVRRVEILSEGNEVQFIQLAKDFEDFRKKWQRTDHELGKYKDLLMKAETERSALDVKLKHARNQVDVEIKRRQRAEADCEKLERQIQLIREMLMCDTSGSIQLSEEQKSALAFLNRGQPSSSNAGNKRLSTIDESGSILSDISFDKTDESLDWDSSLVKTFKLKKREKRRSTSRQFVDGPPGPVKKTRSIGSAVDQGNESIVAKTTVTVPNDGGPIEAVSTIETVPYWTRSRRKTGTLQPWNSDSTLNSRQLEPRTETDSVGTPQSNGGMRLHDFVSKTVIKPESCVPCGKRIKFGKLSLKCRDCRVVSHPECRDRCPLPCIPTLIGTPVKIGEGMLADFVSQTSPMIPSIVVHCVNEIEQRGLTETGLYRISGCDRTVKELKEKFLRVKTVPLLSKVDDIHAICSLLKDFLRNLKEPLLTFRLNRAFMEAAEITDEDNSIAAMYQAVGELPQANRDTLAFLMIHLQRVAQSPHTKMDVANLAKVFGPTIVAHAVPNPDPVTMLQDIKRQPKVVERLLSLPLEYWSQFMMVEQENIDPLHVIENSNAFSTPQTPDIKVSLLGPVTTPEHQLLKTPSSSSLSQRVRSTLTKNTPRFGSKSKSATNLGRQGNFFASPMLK

Cytochrome P450 3A4 = Cytochrome P450 3A4 (Homo sapiens, UniProt P08684);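 note: CYP3A4 tested as one member of a cytochrome P450 panel screen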
Sequence of Cytochrome P450 3A4 (P08684 whole entry): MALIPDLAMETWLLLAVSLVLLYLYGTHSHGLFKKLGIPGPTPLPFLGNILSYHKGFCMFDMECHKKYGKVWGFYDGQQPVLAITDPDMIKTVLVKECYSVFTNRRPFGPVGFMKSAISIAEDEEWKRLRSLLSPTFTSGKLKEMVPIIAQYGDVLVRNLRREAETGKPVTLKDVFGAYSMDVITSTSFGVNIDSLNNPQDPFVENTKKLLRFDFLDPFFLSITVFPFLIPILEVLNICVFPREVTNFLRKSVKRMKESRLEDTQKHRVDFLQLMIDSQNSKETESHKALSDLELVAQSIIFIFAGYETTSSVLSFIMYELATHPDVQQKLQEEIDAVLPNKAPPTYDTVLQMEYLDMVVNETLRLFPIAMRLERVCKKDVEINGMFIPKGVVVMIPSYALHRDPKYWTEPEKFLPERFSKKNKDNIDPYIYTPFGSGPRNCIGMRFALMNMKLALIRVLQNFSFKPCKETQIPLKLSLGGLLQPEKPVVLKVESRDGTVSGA

cells [12] = format: functional, cell-based
cells [13] = format: functional, cell-based; remark: listed apart in the source
BJ [14] = assay: growth inhibition of engineered Ras-driven BJ cells – cell-based, alamar blue fluorescence, cherrypicked samples, dose response (AID 2631); format: functional; details: Homo sapiens;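 note: confirmatory dose-response assay in RAS-dependent BJ fibroblasts engineered with TERT, LT and ST, with cytotoxicity read by fluorescence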
[15] = non-specific 3'UTR reporter inhibition in Clone20-Shn3RL – cell-based, Renilla luciferase, cherry-picked, counter-screen for Shn3 inhibitor project, dose response (AID 624133); format: functional
[16] = reduction of Shn3 3'UTR-driven luciferase in osteoblasts – cell-based, Clone20 osteoblasts, firefly luciferase, cherry-picked, dose response (AID 624132); format: functional;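 note: firefly luciferase luminescence from reporter carrying the Shn3 3'UTR in osteoblasts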
[17] = biological target: T4, Calpain-2 catalytic subunit (Sus scrofa, UniProt P43367); assay: m-calpain protease blockers, concentration series – biochemical, fluorogenic peptide substrate, dose response (AID 1420); format: functional
T4 sequence (P43367 whole entry): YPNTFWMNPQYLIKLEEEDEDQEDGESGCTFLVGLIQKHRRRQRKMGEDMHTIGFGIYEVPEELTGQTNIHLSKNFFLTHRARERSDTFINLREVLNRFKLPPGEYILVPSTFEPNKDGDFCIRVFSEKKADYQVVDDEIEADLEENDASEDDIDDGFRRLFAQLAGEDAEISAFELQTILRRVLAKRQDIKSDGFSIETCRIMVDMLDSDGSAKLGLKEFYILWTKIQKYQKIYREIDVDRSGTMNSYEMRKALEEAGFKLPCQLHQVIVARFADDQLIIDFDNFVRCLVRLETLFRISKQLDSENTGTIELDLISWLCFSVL

[18] = Luminescence Cell-Based Dose Response HTS to Identify Inhibitors of 5'UTR Stem-Loop Driven Prion Protein mRNA Translation in H4 Neuroglioblastoma Cells. [Related pubchem assays: 1827 (Project Summary), 1813 (Primary HTS)]; format: functional
[19] = alpha-synuclein stem-loop luciferase translation blockers – H4 neuroglioma cells, luminescence, confirmation (AID 1988); format: functional, cell-based
[20] = luciferase reporter signal suppression in cells – H4 neuroglioma cells, luminescence, dose response (AID 1990); format: functional, cell-based
Cytochrome P450 2D6 = Cytochrome P450 2D6 (Homo sapiens, UniProt P10635);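 note: CYP2D6 member of a cytochrome P450 panel assay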
Sequence of Cytochrome P450 2D6 (P10635 whole entry): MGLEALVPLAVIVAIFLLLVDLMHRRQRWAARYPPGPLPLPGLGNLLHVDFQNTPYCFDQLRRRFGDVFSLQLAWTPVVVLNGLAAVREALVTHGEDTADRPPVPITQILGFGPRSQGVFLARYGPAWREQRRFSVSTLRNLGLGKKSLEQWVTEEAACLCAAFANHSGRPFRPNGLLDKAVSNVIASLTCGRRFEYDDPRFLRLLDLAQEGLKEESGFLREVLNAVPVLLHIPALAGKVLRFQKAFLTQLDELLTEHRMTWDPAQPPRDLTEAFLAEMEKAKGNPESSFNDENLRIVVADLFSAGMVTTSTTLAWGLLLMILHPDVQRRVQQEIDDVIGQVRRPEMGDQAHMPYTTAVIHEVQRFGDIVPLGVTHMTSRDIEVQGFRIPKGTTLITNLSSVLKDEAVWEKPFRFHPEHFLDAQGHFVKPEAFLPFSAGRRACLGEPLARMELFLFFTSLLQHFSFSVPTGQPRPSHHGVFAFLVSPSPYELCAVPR

[21] = THP-1 cell cytotoxicity, dose response, cytotoxicity control for non-replicating M. tuberculosis project (AID 489025); format: functional
[22] = microbe, parasite or virus in culture; format: functional; details: Mycobacterium tuberculosis
cells [23] = format: functional
[24] = NIH-3T3 fibroblast cytotoxicity, dose response, cytotoxicity control, cell-based, fluorescence, Alamar Blue, secondary assay (AID 2327); format: functional;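 note: NIH-3T3 mouse fibroblasts cultured with fluconazole at 8 µg/mL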
INS1 = assay: INS-1E survival protection against cytokine death – cell-based, luminescence, retest, dose response (AID 449756); format: functional; details: Rattus norvegicus;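 note: cell death triggered by IL-1 beta plus TNF-alpha plus IFN-gamma mixture; protective hits raise ATP signal compared with cytokine alone wells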
[25] = fluconazole-exposed Candida albicans growth modulators – fluorescence, retest, confirmation (AID 2467); format: functional, cell-based
Nonstructural protein 1 = Nonstructural protein 1 (Influenza A virus, UniProt Q194T2); format: functional, Influenza A virus (A/California/07/2009(H1N1))
Sequence of Nonstructural protein 1 (Q194T2 whole entry): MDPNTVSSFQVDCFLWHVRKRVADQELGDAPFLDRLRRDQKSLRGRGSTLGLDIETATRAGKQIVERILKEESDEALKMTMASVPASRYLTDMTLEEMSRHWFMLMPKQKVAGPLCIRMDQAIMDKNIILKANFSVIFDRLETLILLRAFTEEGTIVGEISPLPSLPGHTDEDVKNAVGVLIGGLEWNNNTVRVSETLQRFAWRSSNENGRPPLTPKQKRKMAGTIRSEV

## Cc1noc(NS(=O)(=O)c2ccc(NC(=O)c3oc4ccc(F)cc4c3C)cc2)c1C
[1]
  AC50: 9.87 µM (active)
[2]
  EC50: > 260 µM (inactive)

## O=C1C2C3C=CC(CC3)C2C(=O)N1/N=C/c1ccc(O)cc1 (centres undefined)
[3]
  EC50: > 50 µM (active)

## C=C(C)Cn1c(-c2ccc(OC)cc2)nc2ccccc21
[3]
  EC50: > 50 µM (active)

## Cc1ccc(C(=O)Nc2cc3ccccc3oc2=O)cc1
[4]
  EC50: 0.21 µM (active)
[5]
  IC50: > 80 µM (inactive)
BJ [6]
  EC50: 9.35 µM (active)
BJ [7]
  EC50: 24 µM (active)
[8]
  EC50: 6.97 µM (active)
BJ [9]
  EC50: 18.4 µM (active)

## N=C(N)/N=N/c1c(O)[nH]c2ccc(Br)cc12
[1]
  AC50: 5.14 µM (active)

## Fc1ccc(C2Nc3cccc4cccc(c34)N2)cc1
[1]
  AC50: 16.4 µM (active)

## c1ccc(-c2nc3ccccc3[nH]2)cc1
[4]
  EC50: > 195 µM (not active)
[3]
  EC50: > 50 µM (active)

## NC1CCN(c2nc3c(cc2F)c(=O)c(C(=O)O)cn3-c2ccc(F)cc2F)C1 (centres undefined) [TOSUFLOXACIN TOSYLATE]
Streptococcus
  EC50: 0.999 µM (active)
[3]
  EC50: > 50 µM (active)
[10]
  EC50: 0.276 µM (active)

## COCCCn1c(N)c(C(=O)Nc2ccccc2)c2nc3ccccc3nc21
Streptokinase A
  EC50: > 150 µM (not active)
Vero
  CC50: > 25 µM (active)
Streptococcus
  EC50: 32.8 µM (active)
[10]
  EC50: 16.9 µM (active)

## COc1ccc(OC)c(/C=C2\SC(=S)N(Cc3cccnc3)C2=O)c1
Vero
  CC50: 14.8 µM (active)

## Cc1noc(C)c1COc1cccc(C(=O)OCC(=O)N2CC(=O)Nc3ccccc32)c1
[5]
  IC50: > 80 µM (inactive)

## COc1cc(C2C(=O)c3ccccc3C2=O)ccc1O
[11]
  IC50: 16.1 µM (active)
[1]
  AC50: 3.44 µM (active)

## CS(=O)(=O)c1cnc2c(-c3ccc(F)cc3)cnn2c1N
[3]
  EC50: > 50 µM (active)
Cytochrome P450 3A4
  AC50: 28.2 µM (inconclusive)

## CCOC(=O)C1=C(c2ccccc2)NC(=O)NC1c1ccc(O)c(Cl)c1 (centres undefined)
Cells [12]
  EC50: > 350 µM (not active)
Vero
  CC50: 22.5 µM (active)
Cells [13]
  EC50: > 350 µM (not active)

## Fc1ccc(NC(S)=NCc2ccccc2Cl)cc1
[3]
  EC50: > 50 µM (active)

## Cc1ccc(N2C(=O)c3cccc4c([N+](=O)[O-])ccc(c34)C2=O)c2cccnc12
BJ [14]
  EC50: 0.782 µM (active)
BJ [6]
  EC50: 26.5 µM (inconclusive)
[15]
  AC50: 29.5 µM (active)
[16]
  AC50: 5.68 µM (active)
BJ [7]
  EC50: 3.88 µM (inconclusive)
[8]
  EC50: 5.37 µM (inconclusive)
BJ [9]
  EC50: 2.21 µM (inconclusive)

## O=C1CC(c2cccc(Br)c2)c2cc3c(cc2N1)CCC3 (centres undefined)
[17]
  IC50: > 50 µM (not active)
[5]
  IC50: > 80 µM (inactive)

## CCO[C@@H]1OC(C(=O)NCc2nc3ccccc3[nH]2)=C[C@H](C(C)(C)C)[C@H]1CCCO
[5]
  IC50: > 80 µM (inactive)
[18]
  EC50: 10.5 µM (active)
[19]
  EC50: 0.297 µM (inconclusive)
[20]
  EC50: > 60 µM (not active)

## COc1ccccc1N1CCN(C(=O)c2ccc(-c3ccc(Cl)cc3)o2)CC1
[5]
  IC50: 72.7 µM (inactive)

## O=C1SC(c2ccccc2)=C/C1=C\N1CCCCC1
Cytochrome P450 2D6
  AC50: 25.1 µM (inconclusive)
[11]
  IC50: 45.9 µM (active)
[1]
  AC50: 2.83 µM (active)
[3]
  EC50: > 50 µM (active)
Cytochrome P450 3A4
  AC50: 25.1 µM (inconclusive)

## Cc1ccc(S(=O)(=O)/N=C(\CCl)N2CCOCC2)cc1
[21]
  CC50: 30.1 µM (active)
[22]
  CC50: > 40 µM (active)
Cells [23]
  IC50: 10.8 µM (active)

## Cc1nnc(N/N=C/c2ccccn2)nc1O
[24]
  EC50: 4.26 µM (active)
INS1
  AC50: 1.56 µM (active)
[5]
  IC50: > 80 µM (inactive)
BJ [6]
  EC50: 4.02 µM (active)
Cells [12]
  EC50: > 350 µM (not active)
Cells [13]
  EC50: 7.24 µM (active)
[25]
  EC50: 2.72 µM (active)
BJ [7]
  EC50: 5.42 µM (active)
[8]
  EC50: 5.38 µM (inconclusive)
Nonstructural protein 1
  IC50: 3.92 µM (active)
BJ [9]
  EC50: 1.69 µM (active)
